A short description of this data set: Storage stability of crystalline SN38. Format: physicochemical. The conditions noted are these: 25° C. and 70% relative humidity for one year.

This note sets out measurements from patent US8138343B2, “Crystalline polymorph of 7-ethyl-10-hydroxycamptothecin” (ScinoPharm Taiwan Ltd., priority 2007, dated 2012).

For `CCc1c2c(nc3ccc(O)cc13)-c1cc3c(c(=O)n1C2)COC(=O)C3(O)CC` (stereo not shown) [crystalline SN38, 7-ethyl-10-hydroxycamptothecin], the stability on storage result is given as “stable”.
